# Assay results taken from paper PMC6271011, “Synthesis, Leishmanicidal and Cytotoxic Activity of Triclosan-Chalcone, Triclosan-Chromone and Triclosan-Coumarin Hybrids” (Molecules, 2014).
# “And” between values parts separate entries of the source, which are not always exact repeats. Equal values may be shown once. Read-outs that look alike come from different tables or passages of the source.
# Key:
# [1] = test system: human promonocytic cell line U937; assay: in vitro; conditions: U-937 cells, MTT, 72 h, Lethal Concentration 50
# Experimental: (§1) The cytotoxic activity of the compounds was assessed based on the viability of the human promonocytic cell line U937 (ATCC CRL-1593.2^TM) evaluated by the MTT (3-(4,5-dimethylthiazol-2-yl)-2,5-diphenyltetrazolium bromide) assay. In brief, cells were grown in 96-well cell-culture dishes at a concentration of 100,000 cells/mL in RPMI-1640 supplemented with 10% FBS and the corresponding concentrations of the compounds, starting at 200 µg/mL in duplicate. The cells were incubated at 37 °C with 5% CO2 for 72 h in the presence of the compounds, and then the effect was determined using the MTT assay, incubating at 37 °C for 3 h. The effect of the compounds was determined by measuring the activity of the mitochondrial dehydrogenase by adding 10 µL/well of MTT solution (0.5 mg/mL) and incubating at 37 °C for 3 h. The reaction was stopped by adding a 50% isopropanol solution with 10% sodium dodecyl sulfate for 30 min. Cell viability was determined based on the quantity of formazan produced, according to the optical density (O.D) obtained at 570 nm in a Bio-Rad (Hercules, CA, USA) ELISA instrument. Cultured cells in the absence of extracts were used as viability controls, while meglumine antimoniate and amphotericin B were used as cytotoxicity controls. Assays were performed twice with three replicates per each concentration tested.
# (§2) Cytotoxicity was determined according to viability and mortality percentages obtained for each isolated experiment (compounds, amphotericin B, meglumine antimoniate and culture medium alone). The results were expressed as 50 lethal concentrations (LC50), that corresponds to the concentration necessary to eliminate 50% of cells, calculated by Probit analysis. Percentage of viability was calculated by Equation (1), where the optical density (O.D) of control, corresponds to 100% of viability. In turn, mortality percentage corresponds to 100% viability: % Viability = (O.D Exposed cells)/(O.D Control cells) × 100 (1)
# (§3) The degree of toxicity was established according to the LC50 value using the following scale: highly toxic: LC50 < 50 μg/mL, toxic: LC50 > 50 to < 100 μg/mL; moderately toxic: LC50 > 100 to < 200 μg/mL and potentially non-toxic: LC50 > 200 μg/mL.
# [2] = test system: intracellular amastigotes of L. (V) panamensis; assay: Leishmanicidal activity against intracellular amastigotes (GFP, flow cytometry, 72 h); assay type: cell-based, Leishmania (Viannia) panamensis; conditions: for Leishmanicidal activity % Inhibition: intracellular amastigotes; for SI (Selectivity Index = LC50/EC50): LC50 U-937 / EC50 intracellular amastigotes
# Experimental: The leishmanicidal activity of compounds was evaluated on intracellular amastigotes of L. panamensis transfected with the green fluorescent protein gene (MHOM/CO/87/UA140pIR-GFP). Effect of each compound was determined according to the inhibition of the infection evidenced by both decrease of the infected cells and decrease of intracellular parasite load. Briefly, U-937 human cells at a concentration of 3 × 10^5 cells/mL in RPMI 1640 and 0.1 μg/mL of PMA (phorbol-12-myristate-13-acetate) were infected with promastigotes in stationary phase growth in a 15:1 parasites per cell ratio and incubated at 34 °C and 5% CO2 for 3 h. Cells were washed two times with phosphate buffer solution (PBS) to eliminate not internalized parasites. Fresh RPMI 1640 1 mL was added and cells were incubated during 24 h to guarantee multiplication of intracellular parasites.
# After 24 h of infection, the culture medium was replaced by fresh culture medium containing each compound at concentrations of 20 μg/mL. After 72 h, the inhibition of the infection progress was determined. Cells were removed from the bottom plate with a trypsin/EDTA (250 mg) solution. Recovered cells were centrifuged at 1100 rpm during 10 min at 4 °C, the supernatant was discarded and cells were washed with 1 mL of cold PBS and centrifuged at 1100 rpm during 10 min at 4 °C. Supernatant was discarded and cells were suspended in 500 μL of PBS and analyzed by flow cytometry (FC 500MPL, Cytomics, Brea, CA, USA) counting 20.000 events. All determinations for each compound and standards were carried out in triplicate, in two isolated experiments. Activity of tested compounds was carried out in parallel with infection progress in culture medium alone and in culture medium with amphotericin B 0.05 μg/mL and meglumine antimoniate (10.0 μg/mL) as control drugs. […] The infected cells were exposed against each concentration of synthesized compounds during 72 h, then, cells were removed and tested by flow cytometry as described before.
# Antileishmanial activity was determined according to percentage of infected cells and parasite load obtained for each experimental condition by the cytometer. Percentage of infected cells was determined as the number of positive events by double fluorescence (green for parasites and red for cells) using dotplot analysis. On the other hand, the parasitic load was determined by analysis of mean fluorescence intensity (MFI).
# The parasitemia inhibition was calculated by Equation (2), where the MFI of control, corresponds to 100% of parasitemia. In turn, inhibition percentage corresponds to 100% Parasitemia.
# The selectivity index (SI), was calculated by dividing the cytotoxic activity and the leishmanicidal activity using the following formula: SI = CL50/CE50.
# [3] = test system: intracellular amastigotes of L. (V) panamensis; assay: as above; assay type: cell-based, Leishmania (Viannia) panamensis; conditions: for inhibition at 20 µg/mL: read-out: Leishmanicidal activity % Inhibition; for EC50: intracellular amastigotes in U-937 cells
# [4] = in vitro; conditions: human
# Experimental: as §1, §2, §3
# [5] = test system: L. major; set-up: method as in PMID 15558191; conditions: against L. major; read-out: 50% inhibitory concentration (IC50), growth inhibition; cited from earlier work
# [6] = test system: axenic and intracellular amastigotes of Leishmania panamensis; set-up: method as in doi:10.1007/s00044-011-9886-8; conditions: cited from earlier work
# [7] = at 20 µg/mL, intracellular amastigotes
Molecule,"inhibition at 20 µg/mL [3, 7]",CC50 at 72 h [4],EC50 [3],SI (Selectivity Index = LC50/EC50) [2],other results
"3,4-dimethoxy-4'-hydroxychalcone [3,4-Dimethoxy-4'-hydroxychalcone (6), reference compound]",,,,,"Cytotoxicity LC50 [1]: 13.9 ± 1.4 µg/mL; CC50 ([1]; read-out: Cytotoxicity LC50): 48.9 µM; Leishmanicidal activity % Inhibition ([2]; at 20 µg/mL, 72 h): 52.4 ± 6.5%; Leishmanicidal activity EC50 ([2]; intracellular amastigotes in U-937 cells, 72 h): 20.03 ± 1.4 µg/mL; EC50 ([2]; intracellular amastigotes in U-937 cells, 72 h, read-out: Leishmanicidal activity EC50 (converted)): 70.5 µM"
"Cc1cc(=O)oc2cc(O)ccc12 [7-Hydroxy-4-methylcoumarin (11), 7-hydroxy-4-methylcoumarin, reference compound]",15.3 ± 0.1%,,,,
"O=c1ccoc2cc(O)ccc12 [7-Hydroxychromone (20), 7-hydroxychromone, reference compound]",14.8 ± 0.9%,,,,
"C[C@@H]1[C@H](O)[C@@H](C)/C=C/C=C/C=C/C=C/C=C/C=C/C=C/[C@H](O[C@@H]2O[C@H](C)[C@@H](O)[C@H](N)[C@@H]2O)C[C@@H]2O[C@](O)(C[C@@H](O)C[C@@H](O)[C@H](O)CC[C@@H](O)C[C@@H](O)CC(=O)O[C@H]1C)C[C@H](O)[C@H]2C(=O)O [Amphotericin B, reference compound]",,42.1 µg/mL and 45.6 µM,0.06 µg/mL and 100 nM,,"inhibition at 0.05 µg/mL ([3]; Dose employed: 0.05 µg/mL, intracellular amastigotes): 69.1 ± 1.3%"
"CC(C)=CCC/C(C)=C/COc1ccc2ccc(=O)oc2c1 [Aurapten, 7-geranyloxycoumarin]",,,,,IC50 [5]: 30 µM
"COc1ccc(/C=C/C(=O)c2ccc(OCCCOc3cc(Cl)ccc3Oc3ccc(Cl)cc3Cl)cc2)cc1OC [Compound 7, (2E)-1-(4-{3-[5-Chloro-2-(2,4-dichlorophenoxy)phenoxy]propoxy}phenyl)-3-(3,4-dimethoxyphenyl) prop-2-en-1-one]",67.4 ± 17.2%,> 200 µg/mL and > 327 µM,9.4 µg/mL and 15.4 µM,>21.3,
"COc1ccc(/C=C/C(=O)c2ccc(OCCCCOc3cc(Cl)ccc3Oc3ccc(Cl)cc3Cl)cc2)cc1OC [Compound 8, (2E)-1-(4-{4-[5-Chloro-2-(2,4-dichlorophenoxy)phenoxy]butoxy}phenyl)-3-(3,4-dimethoxyphenyl) prop-2-en-1-one]",67.8 ± 19%,> 200 µg/mL and > 319 µM,10.2 µg/mL and 16.3 µM,>19.6,
"COc1ccc(/C=C/C(=O)c2ccc(OCCCCCOc3cc(Cl)ccc3Oc3ccc(Cl)cc3Cl)cc2)cc1OC [Compound 9, (2E)-1-[4-({5-[5-Chloro-2-(2,4-dichlorophenoxy)phenoxy]pentyl}oxy)phenyl]-3-(3,4-imethoxyphenyl) prop-2-en-1-one]",69.5 ± 8.6%,> 200 µg/mL and > 311 µM,13.5 µg/mL and 21.1 µM,>14.8,
"COc1ccc(/C=C/C(=O)c2ccc(OCCCCCCCCOc3cc(Cl)ccc3Oc3ccc(Cl)cc3Cl)cc2)cc1OC [Compound 10, (2E)-1-[4-({8-[5-Chloro-2-(2,4-dichlorophenoxy)phenoxy]octyl}oxy)phenyl]-3-(3,4-dimethoxyphenyl) prop-2-en-1-one]",,> 200 µg/mL and > 293 µM,,,
"Cc1cc(=O)oc2cc(OCCCOc3cc(Cl)ccc3Oc3ccc(Cl)cc3Cl)ccc12 [Compound 16, 7-{3-[5-Chloro-2-(2,4-dichlorophenoxy)phenoxy]propoxy}-4-methyl-2H-chromen-2-one]",< 50%,> 200 µg/mL and > 397 µM,,,"Leishmanicidal activity % Inhibition ([2]; at 20 µg/mL, 72 h): 34.0 ± 0.3%"
"Cc1cc(=O)oc2cc(OCCCCOc3cc(Cl)ccc3Oc3ccc(Cl)cc3Cl)ccc12 [Compound 17, 7-{4-[5-Chloro-2-(2,4-dichlorophenoxy)phenoxy]butoxy}-4-methyl-2H-chromen-2-one]",57.1 ± 11.5%,> 200 µg/mL and > 386 µM,27.5 µg/mL and 53.1 µM,>7.3,
"Cc1cc(=O)oc2cc(OCCCCCOc3cc(Cl)ccc3Oc3ccc(Cl)cc3Cl)ccc12 [Compound 18, 7-({5-[5-Chloro-2-(2,4-dichlorophenoxy)phenoxy]pentyl}oxy)-4-methyl-2H-chromen-2-one]",,> 200 µg/mL and > 376 µM,,,
"Cc1cc(=O)oc2cc(OCCCCCCCCOc3cc(Cl)ccc3Oc3ccc(Cl)cc3Cl)ccc12 [Compound 19, 7-({8-[5-Chloro-2-(2,4-dichlorophenoxy)phenoxy]octyl}oxy)-4-methyl-2H-chromen-2-one]",,> 200 µg/mL and > 348 µM,,,
"O=c1ccoc2cc(OCCCOc3cc(Cl)ccc3Oc3ccc(Cl)cc3Cl)ccc12 [Compound 25, 7-{3-[5-Chloro-2-(2,4-dichlorophenoxy)phenoxy]propoxy}-4H-chromen-4-one]",94.4 ± 2.9%,6.4 µg/mL and 13.1 µM,2.7 µg/mL and 5.5 µM,2.4,
"O=c1ccoc2cc(OCCCCOc3cc(Cl)ccc3Oc3ccc(Cl)cc3Cl)ccc12 [Compound 26, 7-{4-[5-Chloro-2-(2,4-dichlorophenoxy)phenoxy]butoxy}-4H-chromen-4-one]",91 ± 9.6%,15.8 µg/mL and 31.3 µM,7.5 µg/mL and 14.9 µM,2.1,
"O=c1ccoc2cc(OCCCCCOc3cc(Cl)ccc3Oc3ccc(Cl)cc3Cl)ccc12 [Compound 27, 7-({5-[5-Chloro-2-(2,4-dichlorophenoxy)phenoxy]pentyl}oxy)-4H-chromen-4-one]",75.5 ± 1.5%,25.8 µg/mL and 49.8 µM,16 µg/mL and 30.9 µM,1.6,
"O=c1ccoc2cc(OCCCCCCCCOc3cc(Cl)ccc3Oc3ccc(Cl)cc3Cl)ccc12 [Compound 28, 7-({8-[5-Chloro-2-(2,4-dichlorophenoxy)phenoxy]octyl}oxy)-4H-chromen-4-one]",28.4 ± 2.1%,80 µg/mL and 143 µM,,,
Oc1cc(Cl)ccc1Oc1ccc(Cl)cc1Cl [Triclosan],,,,1.3,"EC50 ([2]; U-937, 72 h, read-out: Leishmanicidal activity EC50): 18.3 µg/mL and 63.2 µM; inhibition at 20 µg/mL [3]: 61.8 ± 5.5%; effective concentration (EC50) [6]: < 24 µg/mL"
"meglumine antimoniate [Sb(V), reference compound]",,,,,"Cytotoxicity LC50 [1]: 495.9 ± 55.6 µg/mL; Leishmanicidal activity % Inhibition ([2]; Dose employed: 10 µg/mL, 72 h): 79.4 ± 2.1 ^h %"
